# Source: patent US7605280B2, “Anthraquinone and its derivatives” (Biostatus Limited, priority 1998, dated 2009)
# Assays:
# [1] = tested on: Monocytes; experiment: FACScan (Cytometer C) flow cytometric analysis of DRAQ5-labelled cells; type: cell-based, human
# Experimental: (§1) Suspension cultures were analysed by flow cytometry without washing. Human blood was obtained using routine venepuncture of a healthy donor and samples manipulated using standard haematological procedures for the isolation of mononuclear blood cells and surface antigen recognition using antibody panels (see Table 1).
# (§2) Cells were analysed using one of four flow cytometers according to the excitation requirements. • Cytometer A: Single beam high power 647 nm krypton laser excitation: The system was a custom-built cytometer and incorporated an Innova 3000K krypton laser (Coherent Corp., Palo Alto, Calif., USA) tuned to the 647 nm line. Forward light scatter, 90° light scatter and fluorescence emissions were collected for 1×10^4 cells using the 90° light scatter parameter as the master signal. The optical system permitted the analysis of various fluorescence emission wavelengths including: >715 nm (termed low infra-red) and, as reported here >780 nm fluorescence (infra-red ). Forward and 90° light scatter were analysed for the identification of cell debris. Laser power was set at 200 mW and linear amplifiers were used for the fluorescence signals. The analysis optics included a 675 nm cold dichroic mirror, ambient laboratory temperature was approximately 12° C. and the sheath reservoir was maintained at 10° C. Filters were supplied by Melles Griot. Median, mean and mode parameters were calculated for the distribution of fluorescence intensity-values throughout a given cell population. In all experiments, median and mean values produced very similar results. Median values alone are reported since this parameter is less affected by the presence of highly fluorescent cells beyond the upper limit for quantification. • Cytometer B: Dual beam low power 633 nm/high power 488 nm laser excitation: The system was a FACS 440 cell sorter (Becton Dickinson Inc., Cowley, UK) incorporating a Spectra Physics argon ion laser (max 500 mW output), tuned to the 488 nm line (100 mW output), and a secondary Spectra Physics 156 helium-neon laser emitting at 633 nm (emitting <5 mW), with a temporal beam separation of about 30 μsec. Forward light scatter, 90° light scatter and fluorescence emissions were collected for 1×10^4 cells using the forward light scatter parameter as the master signal from the primary 488 nm beam, while side scatter was collected through a 488/10 nm band-pass filter. The analysis optics included: i) a cold dichroic mirror (transmitting >675 nm), ii) fluorescence from fluorescein excited by the 488 nm beam detected at a PMT guarded by a 535/15 nm band-pass filter with no signal delay, and iii) a red-sensitive PMT with an appropriate delay, additionally guarded by a 620 nm long-pass filter, to detect the transmitted beam of DRAQ5-associated fluorescence at wavelengths beyond 675 nm (high-red and extending into the infra red region of the spectrum) Forward and 90° light scatter were analysed to exclude any cell debris. All parameters were acquired at 256 channel resolution with Consort 30 software (Becton Dickinson) and subsequently analysed with WinMDI software (J. Trotter, La Jolla, Calif.). The system employed the same analysis optics when used in the single 488 nm beam mode but with no signal delay for the red-sensitive PMT. • Cytometer C: Single beam, low power 488 nm laser excitation: The system was a FACScan (Becton Dickinson; Inc., Cowley, UK) incorporating an argon ion laser (max 15 mW output), tuned to the 488 nm line. Forward light scatter, 90° light scatter and fluorescence emissions were collected for 1×10^4 cells using the forward light scatter parameter as the master signal. The standard analysis optics provided the FL1 […]/FL3 (red) PMT parameters with pulse analysis performed on the FL3 originating signals. • Cytometer D: Triple beam medium power 633 nm/medium power 488 nm/medium power multiline-UV laser excitation: […]
# [2] = tested on: Lymphocytes; experiment: as above; type: cell-based, human
# Experimental: as §1, §2
# [3] = Preparation 3, 20 μM DRAQ5, 120 min
# [4] = Preparation 3, 4.8 × 10^5/ml, 20 μM DRAQ5, 5 min
# [5] = Preparation 3, 7.5 × 10^5/ml, 20 μM DRAQ5, 5 min
# [6] = Preparation 3 Ficoll-isolated viable mononuclear blood cells, 2.5 × 10^5/ml, 20 μM DRAQ5, 5 min
# [7] = Preparation 4 (Preparation 3 plus surface antigen analysis), 20 μM DRAQ5, 5 min
# [8] = Preparation 5 whole blood, viable cells, 20 μM DRAQ5, 5 min
# [9] = Preparation 6 whole blood, cells lysed and fixed, 20 μM DRAQ5, 5 min
smiles,measurement,setting,value
CN(C)CCNc1ccc(O)c2c1C(=O)c1c(O)ccc(NCCN(C)C)c1C2=O [DRAQ5],Mean fluorescence intensity (±sd) of gated population,[1]; [3],342.2 ± 22.4
same,Mean fluorescence intensity (±sd) of gated population,[1]; [4],301.8 ± 24.3
same,Mean fluorescence intensity (±sd) of gated population,[1]; [5],311.0 ± 30.9
same,Mean fluorescence intensity (±sd) of gated population,[1]; [6],302.9 ± 25.4
same,Mean fluorescence intensity (±sd) of gated population,[1]; [7],317.9 ± 27.3
same,Mean fluorescence intensity (±sd) of gated population,[1]; [8],274.6 ± 41.0
same,Mean fluorescence intensity (±sd) of gated population,[1]; [9],240.2 ± 28.1
same,enhanced staining potential of monocytes versus lymphocytes,[1]; Preparations 3 and 4,1.14-1.4 fold
same,Mean fluorescence intensity (±sd) of gated population,[2]; [3],299.1 ± 23.9
same,Mean fluorescence intensity (±sd) of gated population,[2]; [4],215.9 ± 26.3
same,Mean fluorescence intensity (±sd) of gated population,[2]; [5],234.1 ± 27.0
same,Mean fluorescence intensity (±sd) of gated population,[2]; [6],227.4 ± 24.5
same,Mean fluorescence intensity (±sd) of gated population,[2]; [7],261.6 ± 26.3
same,Mean fluorescence intensity (±sd) of gated population,[2]; [8],257.3 ± 35.0
same,Mean fluorescence intensity (±sd) of gated population,[2]; [9],228.5 ± 28.5
